Results: US20090264470A1 (priority 2006, published 2009)

Tests used:
[1] = Body weight of diet-induced obese male C57BL/6J mice, repeated oral dosing for 28 days; assay type: in vivo, mouse; details: Dunnett's test p<0.001; doses as in Table 2
Procedure: Sibutramine, which is currently used clinically, and rimonabant, which has recently received regulatory approval for the management of obesity were used as reference compounds.
Sixty-five C57BL/6J mice (7-8 weeks of age) were ordered from Charles River, Margate, Kent. Mice were group housed in polypropylene cages with free access to a high fat diet (D12451 45% of Kcal derived from fat; Research Diets, New Jersey, USA) and tap water at all times. Animals were maintained at 21±4° C. and 55±20% humidity on a normal phase 12 h light-dark cycle (lights on 04:30 h)
Animals were exposed to the high fat diet for 16 weeks. During this time body weight was recorded weekly. […] Body weight and food and water intake was recorded daily. […]
Body weight and food and water intake were recorded daily. Following drug administration the animals were examined and any overt behaviour was recorded. […]
The test compounds were dissolved in 1% methylcellulose. […] Drug doses were expressed as free base.
Resulting body weights, food intake and water intake were expressed as mean values±SEM, and the SEMs are calculated from residuals of the statistical model. Body weight data was analysed by ANCOVA with Day 1 as covariate followed by appropriate comparisons (two-tailed) to determine significant differences from the control group. […] Daily food and water intake data was analysed by ANOVA.

[2] = Acute administration: wet mash and food intake and 24 h body weight in lean male C57BL/6J mice; assay type: in vivo, mouse; details: dosed orally at 10 mg/kg
Procedure: The goal of this study was to investigate the effects of various ratios of bupropion:(R)-norfluoxetine on body weight and food and water intake in male C57BL/6J mice habituated to the daily presentation of a palatable wet mash diet. […] Animals were maintained on normal-phase lighting. Test compounds were administered orally and measurements were made over the following 24 hours. All experiments included appropriate vehicle-treated control groups.
Sixty-two male C57BL/6J mice (weight range 20-25 g) were ordered from Harlan UK, Bicester, UK. The mice were individually housed in polypropylene cages at a temperature of 21±4° C. and 55%±20% humidity. Animals were maintained on a normal phase light-dark cycle (lights off for 12 h from 19:00-07:00 h) during which time the room was illuminated by red light. […] In addition, animals were habituated to a daily presentation of a wet mash diet (1 part powdered chow:1.5 parts tap water) placed on a dish on the cage floor. Animals were maintained under these conditions for at least ten days before experimentation commenced.
Typically an acute study was run each week with each study containing 60 animals. On the day prior to testing, the experimental animals were randomly allocated to suitable treatment groups. Animals were weighed and 2 h wet mash intake was calculated (to the nearest 0.1 g). […]
Drug administration occurred 60 minutes before the presentation of ‘wet mash’ which was at approximately 09:30 am. […] The mash was replaced with a fresh quantity of wet mash at the 4 hour time point. […] Wet mash was replaced with a known quantity of standard pellets at the 6 hour time point. […] Food and water intakes of the different groups of animals were measured concurrently. The animals were monitored at each reading and any overt drug-induced behavioural effects were recorded. […]
Results (body weights (g) at 0, 24 h; change in body weight (g) over 24; food and water intake at 1, 2, 4, 6 and 24 h and between 1-2 h, 2-4 h, 4-6 h) were expressed as mean values±SEM. […]

[3] = molecular target: T1, human CB1 receptors (Homo sapiens, UniProt P21554); assay: [35S]GTPγS binding assay, CHO-k1 cell membranes; assay type: biochemical
T1 construct: expressed in transfected cells; host or cells: CHO-k1 cells (membranes)
T1 sequence (P21554 whole entry): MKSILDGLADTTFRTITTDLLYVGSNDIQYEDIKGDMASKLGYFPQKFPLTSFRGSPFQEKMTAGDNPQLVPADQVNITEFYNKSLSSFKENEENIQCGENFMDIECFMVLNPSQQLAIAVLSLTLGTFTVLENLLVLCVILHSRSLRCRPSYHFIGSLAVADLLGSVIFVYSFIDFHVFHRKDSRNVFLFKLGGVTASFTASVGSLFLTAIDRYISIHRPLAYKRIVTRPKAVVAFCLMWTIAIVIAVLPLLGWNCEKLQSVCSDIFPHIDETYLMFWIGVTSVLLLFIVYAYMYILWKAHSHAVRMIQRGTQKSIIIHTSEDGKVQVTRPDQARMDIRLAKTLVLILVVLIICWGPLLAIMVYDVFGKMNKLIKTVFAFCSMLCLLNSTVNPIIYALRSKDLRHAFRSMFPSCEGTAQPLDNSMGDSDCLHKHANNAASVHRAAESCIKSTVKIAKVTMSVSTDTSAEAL
Procedure: [^35S]GTPγS binding assays were performed with CHO-k1 cell membranes stably expressing human CB1 receptors in 96-well ScintiPlate (PerkinElmer). The membranes (12.5 μg/well) were preincubated with compound 7 in the binding buffer (50 mM Tris-HCl, pH 7.4, 100 mM NaCl, 3 mM MgCl2, 0.2 mM EDTA, 0.2% BSA and 10 μM GDP) at 30° C. for 30 min, then added various concentrations of agonists (WIN 55212-2 or CP 55,940) and [^35S]GTPγS (0.2 nM) in a final volume of 200 μl. Reactions were carried out at 30° C. for 60 min, followed by centrifugation of plate at […] for 15 min. After removing supernatant, the radioactivity was quantitated on a TopCounter.

[4] = molecular target: T2, Human Cannabinoid 1 (CB1) (Homo sapiens, UniProt P21554); assay: Ca2+i response to 2-AG (dose-response with or without compound), CB1 GqΔGi/CHO cells, DSIS flow cytometry; assay type: cell-based; details: 2-AG with or without compound (FIG. 2)
T2 construct: expressed in transfected cells; host or cells: CHO cells stably expressing the GqΔGi chimera
T2 sequence (P21554 whole entry): as above
Source text: cDNA for the G protein GqΔGi chimera was generated by PCR and inserted into the polylinker region of the pcDNA3/hygro+vector (Invitrogen). Stable expression of GqΔGi chimera protein in CHO cell line was generated under hygromycin selection. Human Cannabinoid 1 (CB1) cDNA was inserted into the polylinker region of the pcDNA3.1/(+) vector (Invitrogen) and DNA was introduced into the GqΔGi/CHO cell line by Lipofectamine reagent (Invitrogen). Cell lines stably expressing the CB receptor with Gq ΔGi chimera protein were generated by double selection with hygromycin and G418 (Coward, P., et al. 1999. Chimeric G proteins allow a high-throughput signaling assay of Gi-coupled receptors. Anal Biochem. 270:242-8).
CB1 Cells were plated 24-48 hours in advance, and were harvested with trypsin at ˜80% confluency. […]
The probe-loaded CB1 and Control cell mixture was placed in the Cell Suspension System on the DSIS where they were continuously rocked to keep them in a suspended state. […] The DSIS software, NVS Sampler, recorded a timing file and the CyAn software, Summit, recorded a data file. These two files were then compiled and analyzed by our proprietary software, NVS Analyzer, to determine the percent of cells that responded to each concentration. The data was transferred to GraphPAD Prism for a non-linear regression curve fit that determined the EC50. […]

[5] = molecular target: T3, mouse CB1 (mouse brain membrane) (Mus musculus, UniProt P47746); assay: Competition ligand binding assay, mouse brain membrane preparations; details: mouse brain membranes (FIG. 6)
T3 construct: human CB1 receptors or mouse brain membrane preparations in 96-well plate format; from tissue; host or cells: mouse brain membrane preparations
T3 sequence (P47746 whole entry): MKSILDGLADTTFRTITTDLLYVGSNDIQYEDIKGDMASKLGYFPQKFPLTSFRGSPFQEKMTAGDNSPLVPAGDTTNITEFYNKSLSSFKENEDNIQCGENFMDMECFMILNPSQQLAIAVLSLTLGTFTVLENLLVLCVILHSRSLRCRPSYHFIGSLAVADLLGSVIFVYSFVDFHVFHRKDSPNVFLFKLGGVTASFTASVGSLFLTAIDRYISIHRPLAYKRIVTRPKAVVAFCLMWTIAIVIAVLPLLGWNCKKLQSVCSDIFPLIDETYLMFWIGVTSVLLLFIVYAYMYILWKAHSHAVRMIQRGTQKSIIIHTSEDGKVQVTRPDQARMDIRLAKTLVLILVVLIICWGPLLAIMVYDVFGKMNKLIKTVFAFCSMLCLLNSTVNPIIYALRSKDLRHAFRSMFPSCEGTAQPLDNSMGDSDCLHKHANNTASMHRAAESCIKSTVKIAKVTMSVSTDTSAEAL
Procedure: (§1) Competition ligand binding assays were performed with the non-selective cannabinoid receptor agonist ([^3H]CP 55,940) (0.75 nM) in the binding buffer containing 50 mM Tris-HCl, pH 7.4, 3 mM MgCl2, 1 mM EDTA, 0.2% BSA using CHO-k1 cell membranes stably expressing human CB1 receptors or mouse brain membrane preparations in 96-well plate format. The receptor membranes (10 μg/well) were pre-incubated with different concentrations of tested compounds in the binding buffer at room temperature for 30 min prior to addition of 0.75 nM [^3H]CP 55,940 in a final volume of 100 μl. The binding was carried out at room temperature for another 2 h. To determine the non-specific binding, experiments were also performed in the presence of 10 μM unlabeled CP 55,940. Binding was terminated by addition of cold binding buffer and filtrated on Whatman GF/B glass-fiber filters using a sampling manifold. The filters were washed 6 times with cold binding buffer and air-dried overnight. The radioactivity was quantitated on a TopCounter (PerkinElmer) after adding scintillation fluid. Specific binding was defined as the difference between the binding in the presence and absence of 10 μM unlabeled CP 55, 940.

[6] = molecular target: T4, CB2 receptor (Homo sapiens, UniProt P34972); assay: Ca2+i response to 2-AG (dose-response with or without compound), CB2 receptor bearing cells; assay type: cell-based; details: CB2 receptor bearing cells (FIG. 2)
T4 construct: host or cells: CB2 receptor bearing cells
T4 sequence (P34972 whole entry): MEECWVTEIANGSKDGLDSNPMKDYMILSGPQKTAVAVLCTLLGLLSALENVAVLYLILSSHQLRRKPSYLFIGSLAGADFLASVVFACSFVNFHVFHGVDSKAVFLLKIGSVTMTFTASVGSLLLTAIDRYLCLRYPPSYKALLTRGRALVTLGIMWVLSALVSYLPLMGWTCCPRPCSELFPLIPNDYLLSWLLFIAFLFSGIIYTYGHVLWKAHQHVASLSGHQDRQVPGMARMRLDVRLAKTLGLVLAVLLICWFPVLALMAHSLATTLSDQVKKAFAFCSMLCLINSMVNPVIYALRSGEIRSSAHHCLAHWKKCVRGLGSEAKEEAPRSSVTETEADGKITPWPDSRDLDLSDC

[7] = molecular target: T1, human CB1 receptors; assay: Competition ligand binding assay, CHO-k1 cell membranes; details: human CB1 cell membranes (FIG. 6)
Procedure: as §1

| pA2 estimation using CP 55940 as an agonist ([3]; CB1 cell line membranes (FIG. 4)) | antagonist versus inverse agonist activity in [35S]GTPγS binding ([3]; response dropped below basal levels (FIG. 5)) | effect on the 2-AG dose response (Ca2+i) [4] | inhibition of binding of [3H]CP 55,940 [5] | effect on the 2-AG dose response (Ca2+i) [6] | inhibition of binding of [3H]CP 55,940 [7] | SMILES | weight reduction as compared to vehicle on day 29 [1] | 24 hour body weight change versus vehicle ([2]; one-way ANOVA (FIG. 10)) | daily food intake versus vehicle ([2]; one-way ANOVA (FIG. 15)) | body weight versus vehicle ([2]; one-way ANOVA (FIG. 16)) |
| --- | --- | --- | --- | --- | --- | --- | --- | --- | --- | --- |
| – | – | – | – | – | – | Cc1c(C(=O)NN2CCCCC2)nn(-c2ccc(Cl)cc2Cl)c1-c1ccc(Cl)cc1 [Rimonabant] | statistically significant weight reduction | No significant differences versus vehicle | No significant differences versus vehicle | No significant differences versus vehicle |
| did not support an allosteric effect | inverse agonist activity | right shift | almost fully inhibited | No effect | partially inhibited | Fc1ccc(C(OCCCc2c[nH]cn2)c2ccc(F)cc2)cc1 [compound 7] | – | – | – | – |
